Data from PubChem BioAssay AID248 (DTP/NCI, 2004).
Values joined by “and” are separate entries in the source; they are usually repeats but may differ in a detail not shown here. Equal values may be shown once. Inconclusive results and toxic doses are left out. Rule as the data show it: active = T/C of 150% or more; inactive = T/C below 125%.

System: L1210 leukemia ip in BDF1 mice, survival T/C
Experiment: NCI In Vivo Anticancer Drug Screen. Data for tumor model L1210 Leukemia (intraperitoneal) in B6D2F1 (BDF1) mice
Details: endpoint: mean survival time, higher = longer survival
How it was run: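 Tumor cells were implanted, animals were treated, and survival was followed. The result divides the treated measurement by the vehicle-control measurement.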

[1] = dose: 100.0 mg/kg/injection, schedule: Q04DX003 (ip), vehicle: saline with Tween-80
[2] = dose: 200.0 mg/kg/injection, schedule: Q04DX003 (ip), vehicle: saline with Tween-80
[3] = dose: 400.0 mg/kg/injection, schedule: Q04DX003 (ip), vehicle: saline with Tween-80
[4] = dose: 100.0 mg/kg/injection, schedule: Q04DX003 (ip), vehicle: saline
[5] = dose: 200.0 mg/kg/injection, schedule: Q04DX003 (ip), vehicle: saline
[6] = dose: 400.0 mg/kg/injection, schedule: Q04DX003 (ip), vehicle: saline
[7] = dose: 100.0 mg/kg/injection, schedule: Q01DX009 (ip), vehicle: Klucel (hydroxypropylcellulose) (HPC)
[8] = dose: 200.0 mg/kg/injection, schedule: Q01DX009 (ip), vehicle: Klucel (hydroxypropylcellulose) (HPC)
[9] = dose: 100.0 mg/kg/injection, schedule: Q01DX001 (ip), vehicle: Klucel (hydroxypropylcellulose) (HPC)
[10] = dose: 200.0 mg/kg/injection, schedule: Q01DX001 (ip), vehicle: Klucel (hydroxypropylcellulose) (HPC)
[11] = dose: 400.0 mg/kg/injection, schedule: Q01DX001 (ip), vehicle: Klucel (hydroxypropylcellulose) (HPC)
[12] = dose: 100.0 mg/kg/injection, schedule: Q04DX003 (ip), vehicle: Klucel (hydroxypropylcellulose) (HPC)
[13] = dose: 200.0 mg/kg/injection, schedule: Q04DX003 (ip), vehicle: Klucel (hydroxypropylcellulose) (HPC)
[14] = dose: 400.0 mg/kg/injection, schedule: Q01DX009 (ip), vehicle: Klucel (hydroxypropylcellulose) (HPC)
[15] = dose: 400.0 mg/kg/injection, schedule: Q04DX003 (ip), vehicle: Klucel (hydroxypropylcellulose) (HPC)
[16] = dose: 100.0 mg/kg/injection, schedule: Q04DX002 (ip), vehicle: Klucel (hydroxypropylcellulose) (HPC)
[17] = dose: 200.0 mg/kg/injection, schedule: Q04DX002 (ip), vehicle: Klucel (hydroxypropylcellulose) (HPC)
[18] = dose: 400.0 mg/kg/injection, schedule: Q04DX002 (ip), vehicle: Klucel (hydroxypropylcellulose) (HPC)

Measured: T/C

O=S(=O)(/C=C/c1ccccc1)N1CCOCC1
inactive: dose: 100.0 mg/kg/injection, schedule: Q01DX001 (ip), vehicle: acetone 111 % of control | dose: 100.0 mg/kg/injection, schedule: Q01DX009 (ip), vehicle: acetone 90 % of control | dose: 100.0 mg/kg/injection, schedule: Q04DX003 (ip), vehicle: acetone 100 % of control | dose: 200.0 mg/kg/injection, schedule: Q01DX001 (ip), vehicle: acetone 102 % of control | dose: 200.0 mg/kg/injection, schedule: Q01DX009 (ip), vehicle: acetone 93 % of control | dose: 200.0 mg/kg/injection, schedule: Q04DX003 (ip), vehicle: acetone 105 % of control | dose: 400.0 mg/kg/injection, schedule: Q01DX001 (ip), vehicle: acetone 101 % of control | dose: 400.0 mg/kg/injection, schedule: Q01DX009 (ip), vehicle: acetone 93 % of control | dose: 400.0 mg/kg/injection, schedule: Q04DX003 (ip), vehicle: acetone 97 % of control

CC1(C)OCC(/C=C/C=N/Nc2ccc([N+](=O)[O-])cc2)O1 (stereo not given)
inactive: [1] 94 % of control | [2] 96 % of control | [3] 91 % of control

Cc1ccc(Nc2nc(N)nc(N)c2N)cc1Cl
inactive: dose: 100.0 mg/kg/injection, schedule: Q01DX Z (ip), vehicle: saline 104 % of control

CN=C(NCc1ccccc1)c1ccc(NC(=O)c2ccc(C(=O)Nc3ccc(C(=NC)NCc4ccccc4)cc3)cc2)cc1
inactive: dose: 1.9 mg/kg/injection, schedule: Q01DX Z (ip), vehicle: methylcellulose (MC) 97 % of control | dose: 3.8 mg/kg/injection, schedule: Q01DX Z (ip), vehicle: methylcellulose (MC) 108 % of control | dose: 7.5 mg/kg/injection, schedule: Q01DX Z (ip), vehicle: methylcellulose (MC) 93 % of control

CC(C)(C)OC(=O)N/N=C/c1ccc2c(c1)CCC2
inactive: [1] 100 % of control | [2] 100 % of control | [3] 94 % of control

COc1ccc(OC)c(/C=C/[N+](=O)[O-])c1
inactive: dose: 6.25 mg/kg/injection, schedule: Q01DX009 (ip), vehicle: Klucel (hydroxypropylcellulose) (HPC) 105 % of control | dose: 12.5 mg/kg/injection, schedule: Q01DX009 (ip), vehicle: Klucel (hydroxypropylcellulose) (HPC) 102 % of control | dose: 25.0 mg/kg/injection, schedule: Q01DX009 (ip), vehicle: Klucel (hydroxypropylcellulose) (HPC) 107 % of control | dose: 50.0 mg/kg/injection, schedule: Q01DX009 (ip), vehicle: Klucel (hydroxypropylcellulose) (HPC) 105 % of control | dose: 100.0 mg/kg/injection, schedule: Q04DX003 (ip), vehicle: gum acacia 97 % of control

c1ccc2c(c1)Oc1ccccc1[Te]2
inactive: dose: 100.0 mg/kg/injection, schedule: Q04DX002 (ip), vehicle: saline with Tween-80 100 % of control | dose: 200.0 mg/kg/injection, schedule: Q04DX002 (ip), vehicle: saline with Tween-80 103 % of control | dose: 400.0 mg/kg/injection, schedule: Q04DX002 (ip), vehicle: saline with Tween-80 88 % of control

Oc1cc(O)c2c(c1)OC(O)(c1ccc(O)c(O)c1)C(O)O2 (stereo not given) (tested in a mixture with another compound)
inactive: dose: 50.0 mg/kg/injection, schedule: Q01DX009 (ip), vehicle: saline with Tween-80 104 % of control | dose: 100.0 mg/kg/injection, schedule: Q01DX009 (ip), vehicle: saline with Tween-80 95 % of control | dose: 200.0 mg/kg/injection, schedule: Q01DX009 (ip), vehicle: saline with Tween-80 102 % of control

CCN(CC)CCCNc1nnc2c(=O)n(C)c(=O)n(C)c2n1
inactive: dose: 75.0 mg/kg/injection, schedule: Q04DX003 (ip), vehicle: saline 112 % of control | dose: 150.0 mg/kg/injection, schedule: Q04DX003 (ip), vehicle: saline 93 % of control | dose: 300.0 mg/kg/injection, schedule: Q04DX003 (ip), vehicle: saline 100 % of control

Cc1cc2ccc(OC(=O)c3ccc(N=C(N)N)cc3)cc2oc1=O
inactive: [1] 97 % of control | [2] 95 % of control | [3] 98 % of control

Cc1ccc(S(=O)(=O)N2CC(O)C(O)C2CO)cc1 (stereo not given)
inactive: dose: 50.0 mg/kg/injection, schedule: Q01DX005 (ip), vehicle: saline 96 % of control | dose: 100.0 mg/kg/injection, schedule: Q01DX005 (ip), vehicle: saline 104 % of control | dose: 200.0 mg/kg/injection, schedule: Q01DX005 (ip), vehicle: saline 102 % of control

CC(=O)NCC1CCCO1 (stereo not given)
inactive: dose: 75.0 mg/kg/injection, schedule: Q01DX009 (ip), vehicle: saline 112 % of control | [4] 105 % of control | dose: 150.0 mg/kg/injection, schedule: Q01DX009 (ip), vehicle: saline 103 % of control | [5] 108 % of control | dose: 300.0 mg/kg/injection, schedule: Q01DX009 (ip), vehicle: saline 103 % of control | [6] 106 % of control

Cc1cc(S(=O)(=O)F)ccc1NC(=O)NCc1ccc([N+](=O)[O-])cc1
inactive: [7] 100 % of control | [8] 106 % of control

Cn1c(=O)cc(CCl)c2ccccc21
inactive: dose: 100.0 mg/kg/injection, schedule: Q01DX001 (ip), vehicle: other 105 % of control

O=C(COc1ccc2ccccc2c1)Nc1ccc[n+](Cc2ccc(S(=O)(=O)F)cc2)c1
inactive: [4] 106 % of control | [5] 90 % of control | [6] 94 % of control

O=[N+]([O-])c1ccc(/C=C/c2ccc(S(=O)(=O)F)cc2Cl)c(Cl)c1
inactive: [9] 97 % of control | [10] 87 % of control | [11] 93 % of control

CCCCCCCCCCCCSCCNC(=O)CCl
inactive: [7] 87 % of control | [12] 95 % of control | [8] 92 % of control | [13] 92 % of control | [14] 88 % of control | [15] 92 % of control

O=C(O)COc1cccc(Cl)c1F
inactive: [16] 100 % of control | [17] 107 % of control | [18] 118 % of control

S=P(c1ccccc1)(N1CCN(c2ccc(Cl)cc2)CC1)N1CCN(c2ccc(Cl)cc2)CC1
inactive: dose: 100.0 mg/kg/injection, schedule: Q01DX001 (ip), vehicle: saline 88 % of control | [7] 102 % of control | [12] 95 % of control | [8] 91 % of control | dose: 400.0 mg/kg/injection, schedule: Q01DX001 (ip), vehicle: saline 90 % of control | [14] 93 % of control | [15] 92 % of control

O=C(Nc1ccc(F)cc1)OCCc1ccccn1
inactive: [9] 96 % of control | [7] 98 % of control and 101 % of control | [16] 94 % of control and 99 % of control | [12] 113 % of control | [10] 101 % of control | [8] 101 % of control and 106 % of control | [17] 94 % of control and 96 % of control | [13] 96 % of control | [11] 91 % of control | [14] 94 % of control and 91 % of control | [18] 97 % of control and 105 % of control | [15] 99 % of control

CCn1nnc2c(=O)[nH]c(N)nc21
inactive: [1] 105 % of control | [2] 104 % of control | [3] 94 % of control

C[Si](C)(C)Br
inactive: dose: 100.0 mg/kg/injection, schedule: Q01DX009 (ip), vehicle: saline 96 % of control | dose: 200.0 mg/kg/injection, schedule: Q01DX009 (ip), vehicle: saline 87 % of control | dose: 400.0 mg/kg/injection, schedule: Q01DX009 (ip), vehicle: saline 87 % of control

CN(C)c1ccc(NC(=O)NCCCl)cc1
inactive: [12] 106 % of control | [13] 103 % of control
